Results from article PMC3616494 (Journal of medicinal chemistry, 2008).
Entries after “also recorded” stand apart in the source; their conditions may differ.

Assays:
[1] = molecular target: T1, rat A3 AR (Rattus norvegicus, UniProt P28647); test: Radioligand binding at rat A3 AR; details: for Binding affinity at the rat A3 AR (in words): CHO cells
T1 sequence (P28647 1-320): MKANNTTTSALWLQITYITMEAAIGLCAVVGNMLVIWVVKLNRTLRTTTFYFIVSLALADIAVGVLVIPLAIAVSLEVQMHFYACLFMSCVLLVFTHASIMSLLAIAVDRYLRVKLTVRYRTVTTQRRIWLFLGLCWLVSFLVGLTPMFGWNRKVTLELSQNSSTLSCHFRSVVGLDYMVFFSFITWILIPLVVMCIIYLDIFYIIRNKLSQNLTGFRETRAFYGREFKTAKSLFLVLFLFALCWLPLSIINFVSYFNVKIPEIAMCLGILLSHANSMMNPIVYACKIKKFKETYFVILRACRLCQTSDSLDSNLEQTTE

[2] = test system: human A2B AR; details: cited from earlier work
[3] = molecular target: T2, human A3 AR (Homo sapiens, UniProt P0DMS8); test: Radioligand binding at human A3 AR; details: stated for all subtypes of ARs (hA1, hA2A, hA3)
T2 sequence (P0DMS8 1-318): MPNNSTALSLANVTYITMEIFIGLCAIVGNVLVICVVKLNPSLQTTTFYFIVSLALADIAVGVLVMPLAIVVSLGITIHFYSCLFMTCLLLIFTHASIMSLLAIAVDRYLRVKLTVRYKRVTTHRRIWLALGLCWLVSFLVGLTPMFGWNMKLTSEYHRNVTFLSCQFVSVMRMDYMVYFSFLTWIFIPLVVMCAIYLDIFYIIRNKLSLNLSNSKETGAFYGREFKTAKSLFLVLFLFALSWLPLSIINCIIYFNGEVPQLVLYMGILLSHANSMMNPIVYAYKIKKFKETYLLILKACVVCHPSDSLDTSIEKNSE

Work on O[C@@H]1[C@H](O)CS[C@H]1n1cnc2c(NCc3cccc(Br)c3)nc(Cl)nc21 [Compound 6d] yielded a Ki [1] of 6.1 ± 1.8 nM.

In the case of O[C@@H]1[C@H](O)CS[C@H]1n1cnc2c(NCc3cccc(I)c3)nc(Cl)nc21 [Compound 6e], the “Activity as agonist or antagonist in a cyclic AMP functional assay at the hA2B AR” value [2] is given as “inactive as agonist or antagonist”.

Compound O[C@@H]1[C@H](O)CS[C@H]1n1cnc2c(NCc3cccc(F)c3)nc(Cl)nc21 [Compound 6b] has a Ki [1] of 36.2 ± 10.7 nM.

With CNc1nc(Cl)nc2c1ncn2[C@@H]1SC[C@@H](O)[C@H]1O [Compound 6a] the Ki [1] was 658 ± 160 nM and the “Binding affinity at the rat A3 AR (in words)” value [1] was “lost their binding affinities”.

For CNc1ncnc2c1ncn2[C@@H]1SC[C@@H](O)[C@H]1O [Compound 7a, (2R,3R,4S)-Tetrahydro-2-(6-(methylamino)-9H-purin-9-yl)thiophene-3,4-diol], the “Binding affinity at the rat A3 AR (in words)” value [1] was “totally devoid of A3AR binding affinity; also recorded: lost their binding affinities”.

In the case of O[C@H]1[C@@H](O)CS[C@@H]1n1cnc2c(NCc3cccc(Br)c3)nc(Cl)nc21 [Compound 7f], the “Binding affinity (in words)” value [3] is reported as “totally devoid of binding affinities”.

With O[C@H]1[C@@H](O)CS[C@@H]1n1cnc2c(NCc3cccc(I)c3)nc(Cl)nc21 [Compound 7g] the “Binding affinity (in words)” value [3] was “totally devoid of binding affinities”.
